Entries after “also recorded” stand apart in the source; their conditions may differ.
Experiments:
Assay type in all cases: cell-based, human
[1] = system: primary fibroblasts from RDEB patients (RDEB-FBs); assay: Collagen lattice contraction (CLC) assay; details: for cell contractility (collagen lattice contraction) / contractility (collagen lattice contraction): RDEB-FBs, 20 μM, 48 h; for contractility (collagen lattice contraction): presence of TGF-β1 2 ng/mL
Procedure: RDEB-FBs (5×10^5 cells) were mixed in a collagen buffer and seeded into 12-well plates as previously described. After gelation, fibroblast-populated collagen lattices were detached from the wells and left floating. RDEB-FBs were treated with 20 μM of DAPT and PF-03804014 in DMEM containing 0.1% BSA, in the presence or absence of TGF-β1 at 2 ng/mL, as contraction booster. JAG1-silenced RDEB-FBs were embedded in collagen lattices 24 h after siRNA transfection. In both cases, images were acquired with ChemiDoc™ XRS+ System (Bio-Rad, Hercules, CA, USA) at the detachment of collagen lattices from the wells (time 0, TO) and after 48 h. Gel areas were measured by ImageJ software and photos at TO were used as references.

[2] = system: NOTCH1 intracellular domain (N1-ICD); assay: Immunoblotting of cleaved NOTCH1 (N1-ICD) in nuclear extracts of RDEB fibroblasts; details: 24 h; for intranuclear levels of N1-ICD: RDEB-FBs, 5, 10 and 20 μM
Description: 3-(4,5-dimethyl-2-thiazolyl)-2,5-diphenyl-2H-tetrazolium bromide (MTT) assay showing the impact of DAPT and PF-03084014 treatment on viability and proliferation rate of three primary fibroblast strains from healthy controls (NH-FBs). Absorbance values (Abs) were converted in percentage by using the following formula: AbsDAPT or PF-03084014×100/AbsREFERENCE WELLS. Data are presented as mean±standard deviation (SD) of at least eight technical replicates per condition. Cells treated with the vehicle DMSO (Panel A), and cells analyzed 24 h after seeding (T0) (Panel B) were considered as reference wells. NH-FBs were growth in DMEM medium containing 10% fetal bovine serum (FBS). […] Based on the results, it was chosen to use GSIs at 20 μM (black arrows) as it was the minimal drug concentration inducing a reduction of cell proliferation after 24 h of treatment. (Panel C) Immunoblotting analysis showing the protein levels of the cleaved and biologically active form of NOTCH1 receptor (N1-ICD, NOTCH1 intracellular domain) in nuclear extracts of primary fibroblasts from RDEB patients (RDEB-FBs, n=2) treated for 24 h with DAPT and PF-03084014 at different doses, ranging from 0.1 to 20 μM. Cells treated with the vehicle dimethyl sulfoxide (DMSO) were used as control. The reduced nuclear localization of N1-ICD indicates Notch pathway inhibition. […] Lamin B1 (LMNB1) and glyceraldehyde-3-phosphate dehydrogenase (GAPDH) served as loading controls for the nuclear and cytoplasmic protein fractions, respectively. **P-value <0.01, ***P<0.001.
RDEB-FBs were seeded on 100 mm cell culture dishes (8×10^5 cells/dish). Subconfluent cells were treated with different concentrations of PF-03084014 or DAPT for 24 h (FIG. 1—Panel C) or with 2 ng/mL of TGF-β1 for 6 h (FIG. 3D). DMSO-treated cells were used as controls. After cell harvesting with trypsin-EDTA, cytoplasmic and nuclear lysates were obtained using NE-PER™ Nuclear and Cytoplasmic Extraction Reagents kit (Thermo Fisher Scientific), following the manufacturer's instructions with slight modifications. […]

[3] = system: primary fibroblasts from RDEB patients (RDEB-FBs); assay: Oris cell migration assay; details: 24 h, vs non-treated cells
Procedure: Migration rate was evaluated using an Oris™ Cell Migration Assay Kit (Platypus Technologies, Madison, WI, USA) following the manufacturer's instructions. Briefly, cells were seeded at high density (5×10^4 per well) onto 96-well plates containing medical-grade silicon stoppers that restrict cell seeding to an outer annular region of the well, and serum starved overnight. The day after, silicon stoppers were removed and cells were transfected. Analysis of cell migration into the detection zone was performed after Giemsa stain (Sigma-Aldrich). The detection zone was photographed with a Leica DMi8 microscope (Leica Microsystems, Wetzlar, Germany) at 0 h (premigration controls) and 24 h after stopper removal. ImageJ was used to calculate the percentage of cell-free area. The cell migration assay of RDEB-FBs and NH-FBs grown under basal conditions was performed following the same protocol.

[4] = system: primary fibroblasts from RDEB patients (RDEB-FBs); assay: Type I collagen degradation assay; details: presence of TGF-β1, PF-03084014 5 μM, DAPT 20 μM
Procedure: The ability of RDEB-FBs to degrade a thin film of type I collagen (COL1) was assessed as previously described. Briefly, COL1 from calf hides (Symatese, Chaponost, France), was diluted at a concentration of 375 μg/ml in 13 mM hydrochloric acid. Diluted COL1 solution was rapidly mixed on ice with one quarter-volume of a neutralizing phosphate buffer (20 ml of 0.2 M NaH2PO4 pH 7.5, 20 ml 0.1 M NaOH, 4.15 ml 5 M NaCl) and gently dispensed into 24-well plates. COL1 gelation was obtained maintaining COL1-coated plates at 37° C. for 2 h. COL1 gels were dehydrated overnight in a laminar flow hood, washed with sterile water and PBS containing Penicillin/Streptomycin. Then, a droplet of complete medium containing 12.500 RDEB-FBs was gently poured in the center of the well, and cells were allowed to adhere in a humidified chamber for 3 h. […] At the end of the incubation period, RDEB-FBs were detached by trypsin/EDTA and counted to be sure to evaluate collagenolytic activity of the same number of cells per condition. The residual COL1 film was stained for 15 min with a solution of Coomassie Brilliant Blue R-250 Dye (Thermo Fisher Scientific), the excess of stain was removed with a destain solution (30% ethanol, 7.5% CH3COOH). Images were acquired with a 10× objective.

| Structure (SMILES) | cell contractility (collagen lattice contraction) ([1]; absence of TGF-β1) | contractility (collagen lattice contraction) [1] | intranuclear levels of N1-ICD [2] | ability to migrate into the cell-free area [3] | contractile properties (collagen lattice contraction) in strain RDEB-FB1 ([1]; RDEB-FB1, 20 μM, absence of TGF-β1) | nuclear N1-ICD protein levels (NOTCH1 cleavage and nuclear translocation) ([2]; RDEB-FBs, 0.1, 0.5, 1 μM, compared with DAPT) | type I collagen degradation areas [4] |
| --- | --- | --- | --- | --- | --- | --- | --- |
| C[C@H](NC(=O)Cc1cc(F)cc(F)c1)C(=O)N[C@H](C(=O)OC(C)(C)C)c1ccccc1 [DAPT, N—[N-(3,5-difluorophenacetyl)-L-alanyl]-S-phenylglycine t-butyl ester] | didn't exhibit significant variations | significant, although less conspicuous | comparable impact on the intranuclear levels of N1-ICD | significant decrease of RDEB-FB ability to migrate | – | – | – |
| CCC[C@H](N[C@H]1CCc2cc(F)cc(F)c2C1)C(=O)Nc1cn(C(C)(C)CNCC(C)(C)C)cn1 [PF-03084014, (S)-2-((S)-5,7-difluoro-1,2,3,4-tetrahydronaphthalen-3-ylamino)-N-(1-(2-methyl-1-(neopentylamino)propan-2-yl)-1H-imidazol-4-yl)pentanamide] | modest but consistent in all RDEB-FB strains analyzed | marked reduction of contractility | comparable impact on the intranuclear levels of N1-ICD | significant decrease of RDEB-FB ability to migrate | striking inhibition of contractile properties | huge reduction; also recorded: greater ability of PF-03084014 in inhibiting NOTCH1 cleavage and its nuclear translocation | increased number and size of collagen degradation areas |

Source: patent US20260060960A1, “GAMMA-SECRETASE INHIBITORS FOR USE IN THE TREATMENT OF INHERITED EPIDERMOLYSIS BULLOSA” (OSPEDALE PEDIATRICO BAMBINO GESU', priority 2022, published 2026)
